One test addresses EGFR L858R/T790M/C797S (Homo sapiens, UniProt P00533, C797S/L858R/T790M). Briefly: Biochemical EGFR kinase assay (Lance Ultra TR-FRET), triple mutant L858R/T790M/C797S. As for the experimental part: (§1) Biochemical EGFR kinase assays were conducted using Lance Ultra time-resolved fluorescence resonance energy transfer (TR-FRET) technology from Perkin-Elmer. Compounds of the invention were initially diluted to 20 mM in 100% DMSO for storage and made into kinase buffer solution to create a compound concentration ranging from 0.003 μM and 10 μM.
(§2) Each kinase reactions were incubated at room temperature for 1 hour and then stopped by the addition of 4 μL of stop solution (10 mM EDTA). The specific Europium-labeled-anti-phosphopeptide antibody (PerkinElmer, AD0069) diluted in LANCE detection buffer was then added to a final concentration of 2 nM. After 60 minutes incubation at room temperature the LANCE signal was measured on an EnVision Multilabel Reader (Perkin-Elmer). Excitation wavelength was set at 320 nm and emission monitored at 615 nm (donor) and 665 nm (acceptor). The IC50 values were determined using GraphPad prism software (GraphPad Software, Inc., San Diego, CA, USA).

The next test deals with EGFR del19/C797S (Homo sapiens, UniProt P00533, C797S/DEL746-750). Briefly: Biochemical EGFR kinase assay (Lance Ultra TR-FRET), double mutant del19/C797S. As for the experimental part: as §1, §2
EGFR del19/C797S, sequence (P00533 with tags, fused parts or gaps DEL746-750/C797S): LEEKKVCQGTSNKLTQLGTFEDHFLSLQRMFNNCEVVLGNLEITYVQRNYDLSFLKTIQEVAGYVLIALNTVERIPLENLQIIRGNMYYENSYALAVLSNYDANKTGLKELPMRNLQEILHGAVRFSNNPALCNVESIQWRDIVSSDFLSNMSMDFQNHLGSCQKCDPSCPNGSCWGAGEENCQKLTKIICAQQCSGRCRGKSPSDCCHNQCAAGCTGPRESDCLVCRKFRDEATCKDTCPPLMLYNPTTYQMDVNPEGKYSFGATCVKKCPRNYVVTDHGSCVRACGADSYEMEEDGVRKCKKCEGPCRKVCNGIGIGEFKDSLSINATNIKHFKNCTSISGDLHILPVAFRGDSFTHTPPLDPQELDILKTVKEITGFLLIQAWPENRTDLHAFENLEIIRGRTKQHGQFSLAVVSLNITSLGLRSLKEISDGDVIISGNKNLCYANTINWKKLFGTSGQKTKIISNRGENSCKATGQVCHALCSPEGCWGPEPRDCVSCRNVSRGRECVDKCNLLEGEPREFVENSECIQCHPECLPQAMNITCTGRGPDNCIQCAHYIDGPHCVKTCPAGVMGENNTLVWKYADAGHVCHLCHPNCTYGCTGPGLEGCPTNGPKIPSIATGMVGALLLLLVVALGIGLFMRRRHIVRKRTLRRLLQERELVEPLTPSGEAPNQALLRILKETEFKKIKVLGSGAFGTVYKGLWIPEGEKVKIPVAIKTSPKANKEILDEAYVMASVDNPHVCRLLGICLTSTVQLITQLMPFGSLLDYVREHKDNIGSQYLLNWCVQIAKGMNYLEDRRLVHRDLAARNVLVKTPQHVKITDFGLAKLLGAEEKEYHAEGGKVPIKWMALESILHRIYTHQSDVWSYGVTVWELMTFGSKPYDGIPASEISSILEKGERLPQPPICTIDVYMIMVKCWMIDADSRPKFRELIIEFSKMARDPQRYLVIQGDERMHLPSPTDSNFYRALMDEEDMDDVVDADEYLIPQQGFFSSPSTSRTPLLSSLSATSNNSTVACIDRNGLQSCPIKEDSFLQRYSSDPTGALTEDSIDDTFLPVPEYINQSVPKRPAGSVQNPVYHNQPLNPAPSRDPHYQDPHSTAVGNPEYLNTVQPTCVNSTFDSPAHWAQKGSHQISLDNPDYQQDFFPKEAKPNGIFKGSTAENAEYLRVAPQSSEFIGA
A general note: Time-resolved FRET reads energy transfer from a long-lived donor to a nearby acceptor.

A further test has as its target EGFR L858R/C797S (Homo sapiens, UniProt P00533, C797S/L858R). Briefly: Biochemical EGFR kinase assay (Lance Ultra TR-FRET), double mutant L858R/C797S. As for the experimental part:
as §1, §2

A further test addresses EGFR wildtype (WT) (Homo sapiens, UniProt P00533). Briefly: Biochemical EGFR kinase assay (Lance Ultra TR-FRET), wildtype. The protocol: as §1, §2
The mark [1] stands for this setting: IC50 L858R/T790M/C797S (nM) 100 μM ATP, 100 μM ATP.
The mark [2] stands for this setting: Km ATP, read-out: IC50 L858R/T790M/C797S (nM) Km ATP.
Setting [3] is: IC50 del19/C797S (nM) 100 μM ATP, 100 μM ATP.
The mark [4] stands for this setting: Km ATP, read-out: IC50 del19/C797S (nM) Km ATP.
[5] abbreviates: IC50 L858R/C797S (nM) 100 μM ATP, 100 μM ATP.
[6] abbreviates: Km ATP, read-out: IC50 L858R/C797S (nM) Km ATP.
The mark [7] stands for this setting: IC50 WT (nM) 100 μM ATP, 100 μM ATP.
Where [8] appears, read: Km ATP, read-out: IC50 WT (nM) Km ATP.

Read-outs that look alike come from different tables or passages of the source. Bounds are passed on as bounds.

EGFR L858R/C797S, sequence (P00533 25-1210 C797S/L858R): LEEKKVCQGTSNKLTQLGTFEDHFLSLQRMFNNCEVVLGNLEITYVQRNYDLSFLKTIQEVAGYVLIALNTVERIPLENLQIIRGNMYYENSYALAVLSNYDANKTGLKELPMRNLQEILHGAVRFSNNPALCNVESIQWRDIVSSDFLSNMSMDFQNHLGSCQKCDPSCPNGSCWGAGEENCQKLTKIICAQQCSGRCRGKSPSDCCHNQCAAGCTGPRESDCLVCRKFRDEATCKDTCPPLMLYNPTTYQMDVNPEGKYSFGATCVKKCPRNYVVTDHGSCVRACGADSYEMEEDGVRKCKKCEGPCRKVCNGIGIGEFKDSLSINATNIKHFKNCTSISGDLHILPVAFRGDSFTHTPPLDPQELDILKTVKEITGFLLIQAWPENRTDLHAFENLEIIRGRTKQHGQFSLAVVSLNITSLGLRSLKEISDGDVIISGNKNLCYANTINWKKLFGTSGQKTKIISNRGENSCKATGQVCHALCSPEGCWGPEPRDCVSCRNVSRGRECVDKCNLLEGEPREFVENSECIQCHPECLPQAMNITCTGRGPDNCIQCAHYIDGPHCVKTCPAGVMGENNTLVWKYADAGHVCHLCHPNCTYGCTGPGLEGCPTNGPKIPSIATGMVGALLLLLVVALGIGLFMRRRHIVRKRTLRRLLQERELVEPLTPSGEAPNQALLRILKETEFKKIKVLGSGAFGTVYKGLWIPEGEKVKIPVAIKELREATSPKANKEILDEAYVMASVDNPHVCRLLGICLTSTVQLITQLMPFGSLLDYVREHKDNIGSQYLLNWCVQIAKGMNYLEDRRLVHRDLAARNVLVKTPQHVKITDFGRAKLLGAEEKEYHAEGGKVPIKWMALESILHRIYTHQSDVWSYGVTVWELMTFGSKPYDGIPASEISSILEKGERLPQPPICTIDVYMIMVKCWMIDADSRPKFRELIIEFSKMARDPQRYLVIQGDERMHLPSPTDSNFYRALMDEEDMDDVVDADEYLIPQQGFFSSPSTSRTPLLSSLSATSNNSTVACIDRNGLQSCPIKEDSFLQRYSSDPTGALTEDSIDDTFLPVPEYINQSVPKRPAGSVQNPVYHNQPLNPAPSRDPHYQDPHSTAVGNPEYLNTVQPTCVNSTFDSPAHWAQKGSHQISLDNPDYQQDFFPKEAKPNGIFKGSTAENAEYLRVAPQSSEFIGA
EGFR wildtype (WT), sequence (P00533 25-1210): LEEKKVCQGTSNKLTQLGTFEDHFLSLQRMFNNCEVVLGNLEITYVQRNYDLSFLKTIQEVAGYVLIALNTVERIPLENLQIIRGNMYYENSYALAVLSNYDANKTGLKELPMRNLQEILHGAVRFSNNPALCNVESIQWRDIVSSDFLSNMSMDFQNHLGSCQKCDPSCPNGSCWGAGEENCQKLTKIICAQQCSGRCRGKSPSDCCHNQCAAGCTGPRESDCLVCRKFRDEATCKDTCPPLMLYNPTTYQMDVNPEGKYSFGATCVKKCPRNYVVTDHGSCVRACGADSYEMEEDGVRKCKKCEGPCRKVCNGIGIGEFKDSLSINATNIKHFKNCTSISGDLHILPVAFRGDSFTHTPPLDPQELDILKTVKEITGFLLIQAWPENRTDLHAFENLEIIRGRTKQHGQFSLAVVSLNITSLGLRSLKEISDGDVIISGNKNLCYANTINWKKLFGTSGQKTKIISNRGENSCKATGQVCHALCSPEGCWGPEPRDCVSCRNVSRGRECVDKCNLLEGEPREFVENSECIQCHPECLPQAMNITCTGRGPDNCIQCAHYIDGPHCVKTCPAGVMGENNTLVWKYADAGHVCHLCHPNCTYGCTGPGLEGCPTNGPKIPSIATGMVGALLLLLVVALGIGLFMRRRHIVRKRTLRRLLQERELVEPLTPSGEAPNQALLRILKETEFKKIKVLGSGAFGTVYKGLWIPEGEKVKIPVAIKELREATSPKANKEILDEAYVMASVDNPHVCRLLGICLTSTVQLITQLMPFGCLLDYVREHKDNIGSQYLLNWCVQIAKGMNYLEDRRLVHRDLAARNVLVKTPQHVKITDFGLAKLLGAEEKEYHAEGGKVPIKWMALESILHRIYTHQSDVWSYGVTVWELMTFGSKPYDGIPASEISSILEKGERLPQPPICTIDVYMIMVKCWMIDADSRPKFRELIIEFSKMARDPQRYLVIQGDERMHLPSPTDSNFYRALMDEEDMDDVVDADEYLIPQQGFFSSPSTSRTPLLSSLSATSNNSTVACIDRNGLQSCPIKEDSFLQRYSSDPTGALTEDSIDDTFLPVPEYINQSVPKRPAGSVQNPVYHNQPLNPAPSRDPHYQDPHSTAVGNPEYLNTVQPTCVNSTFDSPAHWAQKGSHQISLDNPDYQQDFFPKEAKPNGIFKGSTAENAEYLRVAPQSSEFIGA
EGFR L858R/T790M/C797S, sequence (P00533 25-1210 T790M/C797S/L858R): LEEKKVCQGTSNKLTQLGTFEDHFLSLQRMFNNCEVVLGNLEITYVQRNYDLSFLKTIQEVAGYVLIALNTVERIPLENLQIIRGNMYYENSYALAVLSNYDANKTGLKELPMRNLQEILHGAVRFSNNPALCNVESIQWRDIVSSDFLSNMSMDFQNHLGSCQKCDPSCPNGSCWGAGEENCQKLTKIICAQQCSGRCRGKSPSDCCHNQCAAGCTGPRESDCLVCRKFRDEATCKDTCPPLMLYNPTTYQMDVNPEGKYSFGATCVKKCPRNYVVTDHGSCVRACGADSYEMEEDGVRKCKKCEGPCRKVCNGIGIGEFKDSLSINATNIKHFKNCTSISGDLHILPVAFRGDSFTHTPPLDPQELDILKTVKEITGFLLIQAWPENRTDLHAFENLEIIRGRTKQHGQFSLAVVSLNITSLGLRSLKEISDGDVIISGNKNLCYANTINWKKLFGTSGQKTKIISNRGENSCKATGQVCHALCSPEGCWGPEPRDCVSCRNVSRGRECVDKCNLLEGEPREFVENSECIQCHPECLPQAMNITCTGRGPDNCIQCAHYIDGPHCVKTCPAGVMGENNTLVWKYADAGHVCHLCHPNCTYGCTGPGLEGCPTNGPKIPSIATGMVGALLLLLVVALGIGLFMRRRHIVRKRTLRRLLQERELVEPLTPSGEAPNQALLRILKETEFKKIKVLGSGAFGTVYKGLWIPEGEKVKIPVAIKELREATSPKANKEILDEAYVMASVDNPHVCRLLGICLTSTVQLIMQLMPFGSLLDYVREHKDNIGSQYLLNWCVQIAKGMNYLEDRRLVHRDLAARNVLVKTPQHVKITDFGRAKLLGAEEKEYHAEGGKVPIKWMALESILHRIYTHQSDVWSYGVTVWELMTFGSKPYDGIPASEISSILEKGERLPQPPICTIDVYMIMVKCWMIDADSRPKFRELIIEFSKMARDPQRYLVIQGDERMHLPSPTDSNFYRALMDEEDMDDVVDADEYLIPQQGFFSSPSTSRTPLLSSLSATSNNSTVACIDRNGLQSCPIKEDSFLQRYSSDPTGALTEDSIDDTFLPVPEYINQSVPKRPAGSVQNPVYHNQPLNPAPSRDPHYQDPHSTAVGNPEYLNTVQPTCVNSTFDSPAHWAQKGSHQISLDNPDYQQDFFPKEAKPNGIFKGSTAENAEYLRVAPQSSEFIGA

On to `O=S(=O)(C1CC1)n1cc(-c2nccc(Nc3cc(N[C@H]4CC[C@@H](NCC(F)F)CC4)c(-c4cc5n(n4)CCCC5)cn3)n2)cn1` [Example 63, N^2-(2-(1-(Cyclopropylsulfonyl)-1H-pyrazol-4-yl)pyrimidin-4-yl)-N^4-((1s,4s)-4-((2,2-difluoroethyl)amino)cyclohexyl)-5-(4,5,6,7-tetrahydropyrazolo[1,5-a]pyridin-2-yl)pyridine-2,4-diamine], for which the IC50 against EGFR L858R/T790M/C797S (setting [1]) turned out to be 3.3 nM; on EGFR L858R/T790M/C797S (setting [2]), 0.7 nM; at EGFR del19/C797S (setting [3]), 2.2 nM; on EGFR del19/C797S (setting [4]), 1.8 nM; at EGFR L858R/C797S (setting [5]), 7.7 nM; at EGFR L858R/C797S (setting [6]), 2.2 nM. The IC50 at EGFR wildtype (WT) (setting [7]) was > 10000 nM; at EGFR wildtype (WT) (setting [8]), 4.4 nM.
On to `O=S(=O)(C1CC1)n1cc(-c2nccc(Nc3cc(N[C@H]4CC[C@@H](CCO)CC4)c(-c4ccn(C(F)F)n4)cn3)n2)cn1` [Example 135, 2-((1s,4s)-4-((2-((2-(1-(Cyclopropylsulfonyl)-1H-pyrazol-4-yl)pyrimidin-4-yl)amino)-5-(1-(difluoromethyl)-1H-pyrazol-3-yl)pyridin-4-yl)amino)cyclohexyl)ethan-1-ol], for which the IC50 against EGFR L858R/T790M/C797S (setting [1]) was found to be 2.1 nM; at EGFR L858R/T790M/C797S (setting [2]), 0.5 nM; at EGFR del19/C797S (setting [3]) it was 1.1 nM; on EGFR del19/C797S (setting [4]) it was 0.7 nM; on EGFR L858R/C797S (setting [5]) it was 58 nM; on EGFR L858R/C797S (setting [6]), 4.5 nM. In addition, the IC50 against EGFR wildtype (WT) (setting [7]) was > 10000 nM; on EGFR wildtype (WT) (setting [8]), 5.7 nM.
For the compound `C[C@]1(O)CC[C@@H](Nc2cc(Nc3ccnc(-c4cnn(S(=O)(=O)C5CC5)c4)n3)ncc2-c2ccn(C(F)F)n2)CC1` [Example 10, (1s,4s)-4-((2-((2-(1-(Cyclopropylsulfonyl)-1H-pyrazol-4-yl)pyrimidin-4-yl)amino)-5-(1-(difluoromethyl)-1H-pyrazol-3-yl)pyridin-4-yl)amino)-1-methylcyclohexan-1-ol], the IC50 was 1.3 nM against EGFR L858R/T790M/C797S (setting [1]), 3.2 nM at EGFR del19/C797S (setting [3]), 2.7 nM at EGFR L858R/C797S (setting [5]) and 1060 nM against EGFR wildtype (WT) (setting [7]).
Consider `Cc1nn(CC(F)(F)F)cc1-c1nccc(Nc2cc(N[C@H]3CC[C@@](C)(O)CC3)c(-c3ccn(C(F)(F)F)n3)cn2)n1` [Example 341, (1s,4s)-1-Methyl-4-((2-((2-(3-methyl-1-(2,2,2-trifluoroethyl)-1H-pyrazol-4-yl)pyrimidin-4-yl)amino)-5-(1-(trifluoromethyl)-1H-pyrazol-3-yl)pyridin-4-yl)amino)cyclohexan-1-ol], for which the IC50 at EGFR L858R/T790M/C797S (Km ATP, read-out: IC50 L858R/T790M/C797S, Km ATP) came out at 0.9 nM; at EGFR del19/C797S (Km ATP, read-out: IC50 del19/C797S, Km ATP), 22 nM; at EGFR L858R/C797S (Km ATP, read-out: IC50 L858R/C797S, Km ATP), 14.8 nM; at EGFR wildtype (WT) (Km ATP, read-out: IC50 WT, Km ATP), 48.4 nM.
For `C[C@]1(O)CC[C@@H](Nc2cc(Nc3ccnc(-c4cnn(S(=O)(=O)C5CC5)c4)n3)ncc2-c2ccn(C(F)(F)F)n2)CC1` [Example 285, (1s,4s)-4-((2-((2-(1-(Cyclopropylsulfonyl)-1H-pyrazol-4-yl)pyrimidin-4-yl)amino)-5-(1-(trifluoromethyl)-1H-pyrazol-3-yl)pyridin-4-yl)amino)-1-methylcyclohexan-1-ol], the IC50 on EGFR L858R/T790M/C797S (setting [2]) was determined as 0.7 nM; at EGFR del19/C797S (setting [4]) it was 2.3 nM; at EGFR L858R/C797S (setting [6]), 0.6 nM; at EGFR wildtype (WT) (setting [8]), 3.2 nM.
For `OCC[C@H]1CC[C@H](Nc2cc(Nc3ccnc(-c4cnn(CC(F)F)c4)n3)ncc2-c2ccn(C(F)F)n2)CC1` [Example 147, 2-((1r,4r)-4-((2-((2-(1-(2,2-Difluoroethyl)-1H-pyrazol-4-yl)pyrimidin-4-yl)amino)-5-(1-(difluoromethyl)-1H-pyrazol-3-yl)pyridin-4-yl)amino)cyclohexyl)ethan-1-ol] the same measures were 0.8 nM, 93.9 nM, 32.6 nM and 51.5 nM.
